Data published in patent US20100093702A1, “METHYLENE AMINES OF THIENO[2,3-d]PYRIMIDINE AND THEIR USE AS ADENOSINE A2a RECEPTOR ANTAGONISTS” (priority 2008, published 2010).

Tests used:
[1] = biological target: T1, human adenosine A2a receptor (Homo sapiens, UniProt P29274); assay: Adenosine A2a Receptor Functional Assay (A2AGAL2); format: cell-based; details: CHO-K1 cells, cAMP inducible beta-galactosidase reporter, 15 nM NECA agonist challenge
T1 construct: expressed in transfected cells; host or cells: CHO-K1
T1 sequence (P29274 whole entry): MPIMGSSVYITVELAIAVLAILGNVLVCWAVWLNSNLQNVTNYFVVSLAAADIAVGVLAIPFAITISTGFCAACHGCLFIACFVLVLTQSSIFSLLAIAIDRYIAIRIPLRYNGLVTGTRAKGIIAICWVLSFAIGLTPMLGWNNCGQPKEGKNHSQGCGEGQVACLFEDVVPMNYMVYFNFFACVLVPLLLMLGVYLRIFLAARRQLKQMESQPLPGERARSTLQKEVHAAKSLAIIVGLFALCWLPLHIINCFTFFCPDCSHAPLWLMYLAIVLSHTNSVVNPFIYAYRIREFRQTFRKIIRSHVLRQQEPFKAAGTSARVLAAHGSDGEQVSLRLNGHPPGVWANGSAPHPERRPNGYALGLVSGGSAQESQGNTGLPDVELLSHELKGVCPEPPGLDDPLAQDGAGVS
Method in brief: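 Antagonist mode in CHO-K1 cells expressing human A2a with a cAMP-inducible β-galactosidase reporter (10K cells/well, cultured 2 days). 11-point compound curves preincubated ~15 min at room temperature in Ham's F-12/0.1% BSA, then 15 nM NECA challenge, 5.5–6 h at 37 °C. Colorimetric β-gal read at 405 nm; IC/EC50 fitted.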

[2] = biological target: T2, human adenosine A1 receptor (Homo sapiens, UniProt P30542); assay: Adenosine A1 Receptor Functional Assay (A1GAL2); format: cell-based; details: CHO-K1 cells, cAMP inducible beta-galactosidase reporter, 4 nM r-PIA/1 uM Forskolin challenge
T2 construct: expressed in transfected cells; host or cells: CHO-K1
T2 sequence (P30542 1-326): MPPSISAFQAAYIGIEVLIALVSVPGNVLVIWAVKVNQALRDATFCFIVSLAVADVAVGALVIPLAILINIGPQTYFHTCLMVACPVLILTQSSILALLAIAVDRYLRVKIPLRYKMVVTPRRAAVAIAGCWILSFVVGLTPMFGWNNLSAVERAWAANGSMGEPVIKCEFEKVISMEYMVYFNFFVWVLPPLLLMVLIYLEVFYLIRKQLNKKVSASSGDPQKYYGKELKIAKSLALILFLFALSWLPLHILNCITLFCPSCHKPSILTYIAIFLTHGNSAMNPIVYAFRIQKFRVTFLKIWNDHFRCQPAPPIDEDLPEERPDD
Method in brief: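 CHO-K1 cells expressing the receptor with a cAMP-inducible β-galactosidase reporter were preincubated with compound (11-point curves) about 15 min at room temperature, then challenged with r-PIA (4 nM)/forskolin (1 µM) for 5.5–6 h at 37 °C. Lysates were read colorimetrically at 405 nm, and IC/EC50 was obtained by curve fitting.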

[3] = biological target: T3, human A2a adenosine receptor (Homo sapiens, UniProt P29274); assay: Ligand Binding Assay for Adenosine A2a Receptor (A2A-B); details: HEK293 plasma membrane, radioligand [3H]CGS21680
T3 construct: purchased PerkinElmer RB-HA2a; host or cells: HEK293
T3 sequence (P29274 whole entry): as the sequence (P29274 whole entry) above
Protocol: Ligand Binding Assay for Adenosine A2a Receptor
Ligand binding assay of adenosine A2a receptor was performed using plasma membrane of HEK293 cells containing human A2a adenosine receptor (PerkinElmer, RB-HA2a) and radioligand [^3H]CGS21680 (PerkinElmer, NET 1021). Assay was set up in 96-well polypropylene plate in total volume of 200 μL by sequentially adding 20 μL 1:20 diluted membrane, 130 μL assay buffer (50 mM Tris.HCl, pH7.4 10 mM MgCl2, 1 mM EDTA) containing [^3H] CGS21680, 50 μL diluted compound (4×) or vehicle control in assay buffer. Nonspecific binding was determined by […] NECA. Reaction was carried out at room temperature for 2 hours before filtering through 96-well GF/C filter plate pre-soaked in 50 mM Tris.HCl, pH7.4 containing 0.3% polyethylenimine. Plates were then washed 5 times with cold 50 mM Tris.HCl, pH7.4, dried and sealed at the bottom. Microscintillation fluid 30 μL was added to each well and the top sealed. Plates were counted on Packard Topcount for [^3H]. Data was analyzed in Microsoft Excel and GraphPad Prism programs. (Varani, K.; Gessi, S.; Dalpiaz, A.; Borea, P. A. British Journal of Pharmacology, 1996, 117, 1693)

Row | SMILES | Ki [1] [µM] | Ki [2] [µM] | Ki [3] [µM]
1 | Cc1ccc(-c2nc(N)c3cc(CN4CCOCC4)sc3n2)o1 [Example 38, 2-(5-Methyl-furan-2-yl)-6-morpholin-4-ylmethyl-thieno[2,3-d]pyrimidin-4-ylamine] | 0.0319 | 1.05 | 0.0327
2 | Cc1ccc(-c2nc(N)c3cc(CN4CCCC4)sc3n2)o1 [Example 39, 2-(5-Methyl-furan-2-yl)-6-pyrrolidin-1-ylmethyl-thieno[2,3-d]pyrimidin-4-ylamine] | 0.0259 | 0.62 | 0.0109
3 | Cc1ccc(-c2nc(N)c3cc(CN4CCc5ccccc5C4)sc3n2)o1 [Example 41, 6-(3,4-Dihydro-1H-isoquinolin-2-ylmethyl)-2-(5-methyl-furan-2-yl)-thieno[2,3-d]pyrimidin-4-ylamine] | 0.202 | 3.32 | 0.187
4 | Nc1nc(-c2ccco2)nc2sc(CN3CCOCC3)cc12 [Example 42, 2-Furan-2-yl-6-morpholin-4-ylmethyl-thieno[2,3-d]pyrimidin-4-ylamine] | 0.053 | 18.2 | 0.0881
5 | C[C@@H]1CCC[C@H](C)N1Cc1cc2c(N)nc(-c3ccco3)nc2s1 [Example 44, 6-(2,6-Dimethyl-piperidin-1-ylmethyl)-2-furan-2-yl-thieno[2,3-d]pyrimidin-4-ylamine] | 0.00565 | 0.0998 | 0.0014
6 | Nc1nc(-c2ccco2)nc2sc(CN3CCC(=O)CC3)cc12 [Example 45, 1-(4-Amino-2-furan-2-yl-thieno[2,3-d]pyrimidin-6-ylmethyl)-piperidin-4-one] | 0.229 | 2.72 | 0.19
7 | CN(C)Cc1cc2c(N)nc(-c3ccco3)nc2s1 [Example 46, 6-Dimethylaminomethyl-2-furan-2-yl-thieno[2,3-d]pyrimidin-4-ylamine] | 0.143 | 3.55 | 0.089
8 | Nc1nc(-c2ccco2)nc2sc(CN3CCC(F)C3)cc12 (stereo not drawn) [Example 51, 6-(3-Fluoro-pyrrolidin-1-ylmethyl)-2-furan-2-yl-thieno[2,3-d]pyrimidin-4-ylamine] | 0.0098 | 1.34 | 0.0059
9 | Nc1nc(-c2ccco2)nc2sc(CN3CCC(O)CC3)cc12 [Example 52, 1-(4-Amino-2-furan-2-yl-thieno[2,3-d]pyrimidin-6-ylmethyl)-piperidin-4-ol] | 0.297 | 4 | 0.22
10 | Nc1nc(-c2ccco2)nc2sc(CN3CC[C@H](F)C3)cc12 [Example 53, 6-(3-Fluoro-pyrrolidin-1-ylmethyl)-2-furan-2-yl-thieno[2,3-d]pyrimidin-4-ylamine] | 0.0123 | 0.656 | 0.014
11 | Nc1nc(-c2ccco2)nc2sc(CN3CC[C@@H](F)C3)cc12 [Example 54, 6-(3-Fluoro-pyrrolidin-1-ylmethyl)-2-furan-2-yl-thieno[2,3-d]pyrimidin-4-ylamine] | 0.0115 | 0.878 | 0.0082
12 | Nc1nc(-c2ccco2)nc2sc(CN3CCC(F)(F)CC3)cc12 [Example 56, 6-(4,4-Difluoro-piperidin-1-ylmethyl)-2-furan-2-yl-thieno[2,3-d]pyrimidin-4-ylamine] | 0.0487 | 2.23 | 0.021
13 | Nc1nc(-c2ccco2)nc2sc(CN3CCCC(F)(F)C3)cc12 [Example 57, 6-(3,3-Difluoro-piperidin-1-ylmethyl)-2-furan-2-yl-thieno[2,3-d]pyrimidin-4-ylamine] | 0.00662 | 0.294 | 0.0084
14 | N#Cc1cccc(-c2nc(N)c3cc(CN4CCCC(F)(F)C4)sc3n2)c1 [Example 62, 3-[4-Amino-6-(3,3-difluoro-piperidin-1-ylmethyl)-thieno[2,3-d]pyrimidin-2-yl]-benzonitrile] | 0.0503 | 1.18 | 0.384
15 | N#Cc1ccc(-c2nc(N)c3cc(CN4CC=CCC4)sc3n2)cc1 [Example 63, 4-[4-Amino-6-(3,6-dihydro-2H-pyridin-1-ylmethyl)-thieno[2,3-d]pyrimidin-2-yl]-benzonitrile] | 0.178 | 1.63 | 0.15
16 | N#Cc1cccc(-c2nc(N)c3cc(CN4CC=CC4)sc3n2)c1 [Example 64, 3-[4-Amino-6-(2,5-dihydro-pyrrol-1-ylmethyl)-thieno[2,3-d]pyrimidin-2-yl]-benzonitrile] | 0.0835 | 2.07 | 0.077
17 | N#Cc1cccc(-c2nc(N)c3cc(CN4CCCC4)sc3n2)c1 [Example 65, 3-(4-Amino-6-pyrrolidin-1-ylmethyl-thieno[2,3-d]pyrimidin-2-yl)-benzonitrile] | > 10 | 0.129 | 0.0418
18 | N#Cc1cccc(-c2nc(N)c3cc(CN4CC=CCC4)sc3n2)c1 [Example 68, 3-[4-Amino-6-(3,6-dihydro-2H-pyridin-1-ylmethyl)-thieno[2,3-d]pyrimidin-2-yl]-benzonitrile] | 0.0133 | 0.212 | 0.378
19 | Nc1nc(-c2cocn2)nc2sc(CN3CC=CC3)cc12 [Example 69, 6-(2,5-Dihydro-pyrrol-1-ylmethyl)-2-oxazol-4-yl-thieno[2,3-d]pyrimidin-4-ylamine] | 0.238 | 3.89 | 1.02
20 | Nc1nc(-c2cocn2)nc2sc(CN3CC=CCC3)cc12 [Example 70, 6-(3,6-Dihydro-2H-pyridin-1-ylmethyl)-2-oxazol-4-yl-thieno[2,3-d]pyrimidin-4-ylamine] | 0.24 | 2.96 | 0.393
21 | N#Cc1ccccc1-c1nc(N)c2cc(CN3CCC(F)CC3)sc2n1 [Example 73, 2-[4-Amino-6-(4-fluoro-piperidin-1-ylmethyl)-thieno[2,3-d]pyrimidin-2-yl]-benzonitrile] | 1.03 | 5.05 | 2.02
22 | N#Cc1cccc(-c2nc(N)c3cc(CN4CCOCC4)sc3n2)c1 [Example 74, 3-(4-Amino-6-morpholin-4-ylmethyl-thieno[2,3-d]pyrimidin-2-yl)-benzonitrile] | 0.0359 | 1.01 | 0.0932
23 | N#Cc1cccc(-c2nc(N)c3cc(CN4C5CCC4CC5)sc3n2)c1 [Example 77, 3-[4-Amino-6-(7-aza-bicyclo[2.2.1]hept-7-ylmethyl)-thieno[2,3-d]pyrimidin-2-yl]-benzonitrile] | 0.095 | 2.17 | 0.0749
24 | Cn1cccc1-c1nc(N)c2cc(CN3CCC(F)CC3)sc2n1 [Example 78, 6-(4-Fluoro-piperidin-1-ylmethyl)-2-(1-methyl-1H-pyrrol-2-yl)-thieno[2,3-d]pyrimidin-4-ylamine] | 0.634 | 1.6 | 0.733
25 | CC(C)c1ccccc1-c1nc(N)c2cc(CN3CCC(F)CC3)sc2n1 [Example 79, 6-(4-Fluoro-piperidin-1-ylmethyl)-2-(2-isopropyl-phenyl)-thieno[2,3-d]pyrimidin-4-ylamine] | 1.04 | 4.47 | 7.41
26 | COc1cccc(-c2nc(N)c3cc(CN4CC=CCC4)sc3n2)c1 [Example 80, 6-(3,6-Dihydro-2H-pyridin-1-ylmethyl)-2-(3-methoxy-phenyl)-thieno[2,3-d]pyrimidin-4-ylamine] | 0.102 | 1.08 | 0.184
27 | N#Cc1cccc(-c2nc(N)c3cc(CN4CCC(F)CC4)sc3n2)c1 [Example 82, 3-[4-Amino-6-(4-fluoro-piperidin-1-ylmethyl)-thieno[2,3-d]pyrimidin-2-yl]-benzonitrile] | 0.0538 | 2.95 | 0.444
28 | N#Cc1cccc(-c2nc(N)c3cc(CN4CCSCC4)sc3n2)c1 [Example 83, 3-(4-Amino-6-thiomorpholin-4-ylmethyl-thieno[2,3-d]pyrimidin-2-yl)-benzonitrile] | 0.0649 | 1.78 | 0.281
